Experimental data: publication PMC5228037, “Discovery and Mechanistic Characterization of Selective Inhibitors of H2S-producing Enzyme: 3-Mercaptopyruvate Sulfurtransferase (3MST) Targeting Active-site Cysteine Persulfide” (Scientific Reports, 2017)

Biological target: T1, 3MST in cell lysate of 3MST-overexpressing HEK293 cells (Mus musculus, UniProt Q99J99)
T1 construct: expressed in transfected cells; host or cells: HEK293 (transient, 3MST/pCI)
T1 sequence (Q99J99 1-297): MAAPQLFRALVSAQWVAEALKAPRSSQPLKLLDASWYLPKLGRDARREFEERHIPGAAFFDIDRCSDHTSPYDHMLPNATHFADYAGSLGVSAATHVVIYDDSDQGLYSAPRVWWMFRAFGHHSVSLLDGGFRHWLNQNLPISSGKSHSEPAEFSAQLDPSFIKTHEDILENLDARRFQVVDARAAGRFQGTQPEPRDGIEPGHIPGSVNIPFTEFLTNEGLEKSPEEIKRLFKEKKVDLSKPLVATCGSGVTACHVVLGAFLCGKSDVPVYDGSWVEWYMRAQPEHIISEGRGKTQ
Test: Inhibitory activity in lysate of m3MST-overexpressing HEK293 cells by gas chromatography
Assay type: biochemical
Settings: 10 μM compound, 100 μM 3MP, 100 μM DTT, 37 °C 15 min
Protocol: Figure 2 Selectivity assessment of hit compounds for 3MST over other H2S/polysulfides-producing enzymes and rhodanese. (a) 3MST-Inhibitory activity of hit compounds at 10 and 100 μM in cell lysate of 3MST-expressing HEK293 cells. 100 μM 3MP and 100 μM DTT were added to the solution containing 0.1% DMSO as a cosolvent, and the mixture was incubated at 37 °C for 15 min. H2S production was measured by gas chromatography. All data are presented as the mean ± S.D. (100 μM: n = 3 or 4; 10 μM: n = 3). (b) Selectivity assessment of hit compounds at 100 μM towards CBS and CSE. Only DMSO was added to the control sample instead of DMSO solution containing hit compounds. H2S production was monitored by gas chromatography. All data are presented as the mean (n = 3). (c) Detection method for rhodanese activity (Sörbo method). (d) Selectivity assessment of hit compounds towards rhodanese. The results are mean ± S.D. (n = 4, three times). These values were determined based upon the absorbance of [Fe(SCN)3] at 460 nm (Sӧrbo method). […] (e) Fluorescence confocal microscopic images of live COS7 cells transfected with 3MST or an empty vector[9] as a control. […] F/F0 was calculated by dividing the fluorescence intensity of cells after addition of 500 μM 3MP (10 min) by that of cells before addition of 500 μM 3MP (Pre), then the mean F/F0 was determined from 5 cells. […]

NC(=O)c1ccsc1NC(=O)CSc1nc2ccccc2c(=O)[nH]1 [compound 1]
inhibition at 10 µM: 80 to 90%

Cc1cc(=O)[nH]c(SCC(=O)c2cccc3ccccc23)n1 [compound 3]
inhibition at 10 µM: 80 to 90%
